Assay results from patent US20150174158A1, “[…] NITRIC OXIDE FOR TREATING RESPIRATORY DISEASES” (Advanced Inhalation Therapies (AIT) Ltd., priority 2012, published 2015).
Like-named read-outs stand apart in the source and are kept apart here.

How the values were obtained:
Group B Streptococci = details: 200 ppm gNO; saline; cited from earlier work
Mycobacterium = details: 200 ppm gNO; saline; cited from earlier work
[1] = Phase I open label safety study of intermittent 160 ppm gNO inhalation: adverse events, vital signs, oxygenation, NO2; assay type: in vivo, human
Description: 10 healthy adult volunteer subjects (5 males, 5 females), aged 20 to 62 years, were enrolled in the study after screening their medical history, a physical examination, pulmonary function tests and blood values. Exclusion criteria included individuals less than 19 years of age, pregnant females and unwilling to practice birth control during the study, diagnosed with pulmonary disease, epistaxis, hemoptysis, methemoglobinemia, organ transplant recipient or receiving antibiotic therapy.
(§1) After obtaining informed consent, treatment was initiated within 5 days of enrollment. Subjects were housed in a hospital ward and received 160 ppm gNO for 30 minutes every four hours (Q4h), five times a day, for five consecutive days by inhalation. Subjects returned for follow-up evaluations 3, 7 and 21 days after the final gNO administration. Subject safety was determined by monitoring vital signs, methemoglobin levels, lung function, blood chemistry, hematology, prothrombin time, inflammatory cytokine/chemokines levels and endothelial activation. These parameters were compared to baseline and at various time-points during and after gNO administration.
Subjects were administered gNO through a modified disposable mouthpiece to maximize mixing. Inspiration was spontaneously initiated by the subject from a conventional intermittent positive pressure breathing respirator (Mark-7, Carefusion, USA) in fixed flow mode delivering 48 liters per minute (LPM). Flows of gas were verified with a calibrated mass flow meter (TSI, USA). Gaseous nitric oxide (gNO, obtained at INOmax, Ikaria, USA) at a concentration of 800 ppm delivered at a flow of 12 LPM was titrated into a distal delivery port on the mouth piece connected to the respirator during inspiratory phase only (pressure switch). The Mark 7 respirator was supplied by an air/oxygen blender (Bird Sentry, Carefusion, USA) set to deliver 26% oxygen.
The levels of gNO, NO2, O2 and methemoglobin were monitored during the administration of gNO. […] Inspiratory NO, NO2 and O2 levels were continuously monitored by sampling from the mouthpiece sample port located about 6 millimeters from the mouth of the subject with an AeroNOx (Pulmonox, AB, Canada) NO, NO2 and O2 electrochemical analyzer. Delivery safety was determined by the number of occasions that NO2 exceeded 5 ppm, gNO exceeding 10% variation and O2 dropping below 20% during gNO administration. […]
General medical examinations were performed by a pulmonary physician on screening and on days 8, 12 and 26 to obtain oxygenation and vital sign measurements. […] Oxygenation was measured with a pulse oximeter (Rad 57, Masimo Corporation, USA) which was used according to manufacturer's guidelines to measure functional oxygen saturation of arterial hemoglobin (SpO2) and heart rate. These parameters were measured continuously during every gNO administration and for 3.5 hours after the first treatment of the day. Cardiovascular status was determined by monitoring heart rate, blood pressure, respiratory rate and temperature. Values were recorded prior to the start of each gNO administration, following a 5 minute rest. During treatments, vital signs (except temperature) were also performed 15 minutes after the start of the treatment and at the end of gNO administration and recorded. After the first treatment each day, vital signs were recorded at every 30 minutes until the start of the second gNO administration of the day.

[2] = cited from earlier work
E. Coli = details: 200 ppm gNO; saline; cited from earlier work
Klebsiella sp. #1 = details: 200 ppm gNO; saline; cited from earlier work
[3] = test system: highly pathogenic Avian Influenza H7N3; details: cited from earlier work
methemoglobin (MetHb) = details: healthy humans, cited from earlier work
[4] = test system: all microorganisms tested; details: 200 ppm gNO, cited from earlier work
S. aureus (Clinical) = details: 200 ppm gNO; saline; cited from earlier work
Klebsiella sp. #3 = details: 200 ppm gNO; saline; cited from earlier work
[5] = test system: bovine respiratory disease; details: intermittent gNO; cited from earlier work
[6] = Phase I safety study: serum nitrite/nitrate by Griess reagent; assay type: in vivo, human; details: 160 ppm gNO 30 min, 5 times a day, 5 days
Description: as §1
(§2) These parameters were measured continuously during every gNO administration course and for 3.5 hours after the first treatment of the day. Daily serum samples were collected and frozen at −80° C. and the serum […] level was measured using the Griess reagent.

methemoglobin (SpMet) = assay: Phase I safety study: methemoglobin (SpMet) by pulse oximeter; assay type: in vivo, human
Description: as §1
The levels of gNO, NO2, O2 and methemoglobin were monitored during the administration of gNO. The target gas mixture was 160 ppm gNO with a nitrogen dioxide (NO2) level of less than 5 ppm and an oxygen (O2) level ranging from 21% to 25%. Inspiratory NO, NO2 and O2 levels were continuously monitored by sampling from the mouthpiece sample port located about 6 millimeters from the mouth of the subject with an AeroNOx (Pulmonox, AB, Canada) NO, NO2 and O2 electrochemical analyzer. Delivery safety was determined by the number of occasions that NO2 exceeded 5 ppm, gNO exceeding 10% variation and O2 dropping below 20% during gNO administration. A commercially available noninvasive pulse oximeter (Rad 57, Masimo Corporation, USA) was used to measure saturation levels at the periphery of methemoglobin (SpMet).
as §2
FIGS. 4A-B present results of monitoring methemoglobin levels before, during and after inhalation of 160 ppm of gaseous nitric oxide by 10 healthy human individuals, undergone 5 gNO administration courses daily, each lasting 30 minutes, for 5 consecutive days, while methemoglobin levels were measured using a pulse oximeter, wherein FIG. 4A is a plot of methemoglobin levels by percents as a function of time as measured before (time point 0), during 250 individual 30 minutes gNO administration courses (time interval of 0 to 30 minutes), after the courses (time interval of 30 to 60 minutes) and at 120 minutes, 180 minutes and 240 minutes after gNO administration was discontinued, and FIG. 4B is a plot of methemoglobin levels by percents as a function of time as measured at the beginning and end of 30 minutes gNO administration courses given over the course of 5 days, and followed 8, 12 and 26 days after gNO administration was discontinued.

[N]=O [gNO, nitric oxide]
LD100 (Group B Streptococci): 2 h | Latent Period (Group B Streptococci): 1 h | −2.5 Log10 (Group B Streptococci): 1.5 hours | LD100 (Mycobacterium): 10 h | Latent Period (Mycobacterium): 7 h | −2.5 Log10 (Mycobacterium): 9.2 hours | minor adverse events ([1]; 160 ppm gNO 30 min, 5 times a day, 5 days, 10 healthy adults): Three minor adverse events were reported | significant adverse events ([1]; 160 ppm gNO 30 min, 5 times a day, 5 days, 10 healthy adults, 250 administrations): no significant adverse events were observed | vital signs ([1]; during and after gNO administration, 160 ppm): remained within normal limits | lowest observed SpO2 ([1]; during or after 160 ppm gNO administration): 93% | mean NO2 level during the treatments ([1]; inspired gas at mouthpiece, 160 ppm gNO, 95% confidence level 2.17-2.47): 2.32 ppm | radius of action from site of origin ([2]; in vivo): approximately 200 microns | nitrate excreted in the urine, share of nitric oxide dose inhaled ([2]; predominant metabolite): more than 70% | LD100 (E. Coli): 5 h | Latent Period (E. Coli): 3 h | −2.5 Log10 (E. Coli): 4.2 hours | LD100 (Klebsiella sp. #1): 6 h | Latent Period (Klebsiella sp. #1): 3 h | −2.5 Log10 (Klebsiella sp. #1): 3.5 hours | infectivity (plaque formation) [3]: capable of reducing the infectivity | MetHb level (methemoglobin (MetHb); gNO 128 ppm for 3 hours): > 5% | MetHb level (methemoglobin (MetHb); gNO 512 ppm for 55 minutes): > 5% | bactericidal effect ([4]; all microorganisms tested): complete bactericidal effect | reduction in CFU/mL ([4]; every bacteria challenged): ≥ 3 login CFU/mL | LD100 (S. aureus (Clinical)): 4 h | Latent Period (S. aureus (Clinical)): 3 h | −2.5 Log10 (S. aureus (Clinical)): 3.7 hours | LD100 (Klebsiella sp. #3): 6 h | Latent Period (Klebsiella sp. #3): 3 h | −2.5 Log10 (Klebsiella sp. #3): 5.1 hours | clinical symptoms of bovine respiratory disease [5]: decrease the clinical symptoms | serum nitrite/nitrate levels vs baseline [6]: no significant differences | residual increase in SpMet at follow-up (methemoglobin (SpMet); 3, 7 and 21 days after final exposure): did not show any residual increase | time for SpMet to return to baseline (methemoglobin (SpMet); after 30 min 160 ppm gNO): 3.5 h | highest SpMet (methemoglobin (SpMet); end of the 30 minutes treatment, 160 ppm gNO, baseline 0.16 (SD=0.10)): 2.5% | accumulative effect on SpMet (methemoglobin (SpMet); five daily treatments for five consecutive days): no accumulative or lingering effect | average increase of SpMet (methemoglobin (SpMet); single 30 min treatment course, 160 ppm gNO, SD=0.08): 0.9%
